Several values for one entry are separate records, joined by “and”; a condition that tells them apart may be missing. Equal entries are not always repeated.
Biological target: T1, human kinase Mps-1 (Homo sapiens, UniProt P33981)
T1 construct: N-terminally GST-tagged human full length recombinant Mps-1 kinase; GST (N); purchased Invitrogen, Karslruhe, Germany PV4071
T1 sequence (P33981 1-857): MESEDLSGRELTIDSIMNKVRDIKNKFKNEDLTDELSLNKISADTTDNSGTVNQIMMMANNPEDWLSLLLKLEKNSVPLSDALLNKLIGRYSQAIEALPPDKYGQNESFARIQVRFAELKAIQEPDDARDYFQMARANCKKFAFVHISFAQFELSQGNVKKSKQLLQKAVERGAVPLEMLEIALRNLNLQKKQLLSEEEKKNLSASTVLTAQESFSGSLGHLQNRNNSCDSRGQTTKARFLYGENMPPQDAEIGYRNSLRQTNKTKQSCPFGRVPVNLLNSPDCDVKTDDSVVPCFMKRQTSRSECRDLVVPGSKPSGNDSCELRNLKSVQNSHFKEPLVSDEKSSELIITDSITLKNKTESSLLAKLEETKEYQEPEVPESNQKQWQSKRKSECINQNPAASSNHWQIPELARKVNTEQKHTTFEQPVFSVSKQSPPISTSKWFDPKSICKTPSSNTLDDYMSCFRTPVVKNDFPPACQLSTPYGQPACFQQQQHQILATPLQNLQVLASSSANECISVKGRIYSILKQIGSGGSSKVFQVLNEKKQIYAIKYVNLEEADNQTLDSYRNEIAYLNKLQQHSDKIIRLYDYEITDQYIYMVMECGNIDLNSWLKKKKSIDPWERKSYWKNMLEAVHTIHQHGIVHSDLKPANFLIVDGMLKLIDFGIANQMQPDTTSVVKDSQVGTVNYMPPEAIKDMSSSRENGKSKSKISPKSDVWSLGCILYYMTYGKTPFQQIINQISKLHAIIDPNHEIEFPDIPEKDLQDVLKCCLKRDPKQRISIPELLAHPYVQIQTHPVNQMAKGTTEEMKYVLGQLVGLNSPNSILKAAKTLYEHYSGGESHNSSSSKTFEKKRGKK
Test: Mps-1 kinase assay (TR-FRET)
Type: biochemical
Conditions: Mps-1 TR-FRET kinase assay; avg; read-out: Mps1 avg (IC50 [mol/l])
How it was run: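 GST-tagged full-length recombinant human Mps-1 (~0.5 nM) pre-incubated 15 min with compound, then reacted 60 min at 22 °C with 10 μM ATP and 1 μM biotinylated peptide in Hepes pH 7.7 buffer. EDTA-stopped; TR-FRET (Eu anti-phospho-Ser/Thr to SA-XLent) 665/620 nm ratio normalised to no-inhibitor and no-enzyme controls.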

Row | IC50 | SMILES
1 | > 20 µM | Cc1nsc(Nc2cnc(C(F)(F)F)cn2)c1C(=O)Nc1cccc(S(C)(=O)=O)c1 [Example 195, 3-methyl-N-[3-(methylsulfonyl)phenyl]-5-{[5-(trifluoromethyl)pyrazin-2-yl]amino}-1,2-thiazole-4-carboxamide]
2 | > 20 µM | Cc1nsc(Nc2cncc(C(F)(F)F)n2)c1C(=O)Nc1ccc(OCCN)nc1 [Example 196, N-[6-(2-aminoethoxy)pyridin-3-yl]-3-methyl-5-{[6-(trifluoromethyl)pyrazin-2-yl]amino}-1,2-thiazole-4-carboxamide]
3 | > 20 µM | Cc1nsc(Nc2cnc(C(F)(F)F)cn2)c1C(=O)Nc1ccc(OCCN)nc1 [Example 197, N-[6-(2-aminoethoxy)pyridin-3-yl]-3-methyl-5-{[5-(trifluoromethyl)pyrazin-2-yl]amino}-1,2-thiazole-4-carboxamide]
4 | 4.6 µM | Cc1nsc(Nc2cnc3ccccc3n2)c1C(=O)Nc1ccc(OCCC(=O)OC(C)(C)C)nc1 [Example 198, tert-butyl 3-{[5-({[3-methyl-5-(quinoxalin-2-ylamino)-1,2-thiazol-4-yl]carbonyl}amino)pyridin-2-yl]oxy}propanoate]
5 | > 20 µM | Cc1nsc(Nc2ccc(C#N)cn2)c1C(=O)Nc1ccc(OCCC(=O)OC(C)(C)C)nc1 [Example 199, tert-butyl 3-({5-[({5-[(5-cyanopyridin-2-yl)amino]-3-methyl-1,2-thiazol-4-yl}carbonyl)amino]pyridin-2-yl}oxy)propanoate]
6 | > 20 µM | Cc1nsc(Nc2cc(C#N)ccn2)c1C(=O)Nc1ccc(OCCC(=O)OC(C)(C)C)nc1 [Example 200, tert-butyl 3-({5-[({5-[(4-cyanopyridin-2-yl)amino]-3-methyl-1,2-thiazol-4-yl}carbonyl)amino]pyridin-2-yl}oxy)propanoate]
7 | > 20 µM | Cc1nsc(Nc2cnc3ccccc3n2)c1C(=O)Nc1ccc(C(N)=O)c(F)c1 [Example 201, N-(4-carbamoyl-3-fluorophenyl)-3-methyl-5-(quinoxalin-2-ylamino)-1,2-thiazole-4-carboxamide]
8 | 5.8 µM | Cc1nsc(Nc2cnc3ccccc3n2)c1C(=O)Nc1ccc(F)c(C(N)=O)c1 [Example 202, N-(3-carbamoyl-4-fluorophenyl)-3-methyl-5-(quinoxalin-2-ylamino)-1,2-thiazole-4-carboxamide]
9 | > 20 µM | Cc1nsc(Nc2ccc(C#N)cn2)c1C(=O)Nc1ccc(F)c(C(N)=O)c1 [Example 203, N-(3-carbamoyl-4-fluorophenyl)-5-[(5-cyanopyridin-2-yl)amino]-3-methyl-1,2-thiazole-4-carboxamide]
10 | 17 µM | Cc1nsc(Nc2cncc(C(F)(F)F)n2)c1C(=O)Nc1ccc(F)c(C(N)=O)c1 [Example 204, N-(3-carbamoyl-4-fluorophenyl)-3-methyl-5-{[6-(trifluoromethyl)pyrazin-2-yl]amino}-1,2-thiazole-4-carboxamide]
11 | > 20 µM | CC(=O)Nc1cc(NC(=O)c2c(C)nsc2Nc2cnccn2)ccc1F [Example 205, N-(3-acetamido-4-fluorophenyl)-3-methyl-5-(pyrazin-2-ylamino)-1,2-thiazole-4-carboxamide]
12 | > 20 µM | CC(=O)Nc1cc(NC(=O)c2c(C)nsc2Nc2cnc(C(F)(F)F)cn2)ccc1F [Example 206, N-(3-acetamido-4-fluorophenyl)-3-methyl-5-{[5-(trifluoromethyl)pyrazin-2-yl]amino}-1,2-thiazole-4-carboxamide]
13 | > 20 µM | CNC(=O)c1ccc(NC(=O)c2c(C)nsc2Nc2cnc3ccccc3n2)cc1F [Example 207, N-[3-fluoro-4-(methylcarbamoyl)phenyl]-3-methyl-5-(quinoxalin-2-ylamino)-1,2-thiazole-4-carboxamide]
14 | > 20 µM | CNC(=O)c1ccc(NC(=O)c2c(C)nsc2Nc2ccc(C#N)cn2)cc1F [Example 208, 5-[(5-cyanopyridin-2-yl)amino]-N-[3-fluoro-4-(methylcarbamoyl)phenyl]-3-methyl-1,2-thiazole-4-carboxamide]
15 | > 20 µM | Cc1nsc(Nc2cncc(C(F)(F)F)n2)c1C(=O)Nc1ccc(OCCCN)nc1 [Example 209, N-[6-(3-aminopropoxy)pyridin-3-yl]-3-methyl-5-{[6-(trifluoromethyl)pyrazin-2-yl]amino}-1,2-thiazole-4-carboxamide]
16 | > 20 µM | CNS(=O)(=O)c1ccc(NC(=O)c2c(C)nsc2Nc2cc(C#N)ccn2)cc1 [Example 210, 5-[(4-cyanopyridin-2-yl)amino]-3-methyl-N-[4-(methylsulfamoyl)phenyl]-1,2-thiazole-4-carboxamide]
17 | > 20 µM and 19 µM | CNS(=O)(=O)c1ccc(NC(=O)c2c(C)nsc2Nc2cncc(C(F)(F)F)n2)cc1 [Example 211, 3-methyl-N-[4-(methylsulfamoyl)phenyl]-5-{[6-(trifluoromethyl)pyrazin-2-yl]amino}-1,2-thiazole-4-carboxamide]
18 | > 20 µM | CNS(=O)(=O)c1ccc(NC(=O)c2c(C)nsc2Nc2cnc(C(F)(F)F)cn2)cc1 [Example 212, 3-methyl-N-[4-(methylsulfamoyl)phenyl]-5-{[5-(trifluoromethyl)pyrazin-2-yl]amino}-1,2-thiazole-4-carboxamide]
19 | > 20 µM | Cc1nsc(Nc2cnc(C(F)(F)F)cn2)c1C(=O)Nc1ccc(C(=O)NCCN2CCCC(F)C2)cc1 (stereo not shown) [Example 213, N-(4-{[2-(3-fluoropiperidin-1-yl)ethyl]carbamoyl}phenyl)-3-methyl-5-{[5-(trifluoromethyl)pyrazin-2-yl]amino}-1,2-thiazole-4-carboxamide]
20 | > 20 µM | Cc1nsc(Nc2cncc(C(F)(F)F)n2)c1C(=O)Nc1ccc(C(=O)NCCN2CCCC(F)(F)C2)cc1 [Example 214, N-(4-{[2-(3,3-difluoropiperidin-1-yl)ethyl]carbamoyl}phenyl)-3-methyl-5-{[6-(trifluoromethyl)pyrazin-2-yl]amino}-1,2-thiazole-4-carboxamide]
21 | > 20 µM | Cc1nsc(Nc2cnc(C(F)(F)F)cn2)c1C(=O)Nc1ccc(OCCNC(=O)OC(C)(C)C)c(F)c1 [Example 215, tert-butyl [2-(2-fluoro-4-{[(3-methyl-5-{[5-(trifluoromethyl)pyrazin-2-yl]amino}-1,2-thiazol-4-yl)carbonyl]amino}phenoxy)ethyl]carbamate]
22 | > 20 µM | Cc1nsc(Nc2cncc(C(F)(F)F)n2)c1C(=O)Nc1ccc(OCCNC(=O)OC(C)(C)C)c(F)c1 [Example 216, tert-butyl [2-(2-fluoro-4-{[(3-methyl-5-{[6-(trifluoromethyl)pyrazin-2-yl]amino}-1,2-thiazol-4-yl)carbonyl]amino}phenoxy)ethyl]carbamate]
23 | > 20 µM | Cc1nsc(Nc2cnc(C(F)(F)F)cn2)c1C(=O)Nc1ccc(OC2CCN(C(=O)OC(C)(C)C)CC2)c(F)c1 [Example 217, tert-butyl 4-(2-fluoro-4-{[(3-methyl-5-{[5-(trifluoromethyl)pyrazin-2-yl]amino}-1,2-thiazol-4-yl)carbonyl]amino}phenoxy)piperidine-1-carboxylate]
24 | > 20 µM | Cc1nsc(Nc2cncc(C(F)(F)F)n2)c1C(=O)Nc1ccc(OC2CCN(C(C)C)CC2)nc1 [Example 218, N-{6-[(1-isopropylpiperidin-4-yl)oxy]pyridin-3-yl}-3-methyl-5-{[6-(trifluoromethyl)pyrazin-2-yl]amino}-1,2-thiazole-4-carboxamide]
25 | > 20 µM | Cc1nsc(Nc2cncc(C(F)(F)F)n2)c1C(=O)Nc1ccc(OC2CCN(C)CC2)nc1 [Example 219, 3-methyl-N-{6-[(1-methylpiperidin-4-yl)oxy]pyridin-3-yl}-5-{[6-(trifluoromethyl)pyrazin-2-yl]amino}-1,2-thiazole-4-carboxamide]
26 | > 20 µM | Cc1nsc(Nc2cnc(C(F)(F)F)cn2)c1C(=O)Nc1ccc(OC2CCN(C)CC2)nc1 [Example 220, 3-methyl-N-{6-[(1-methylpiperidin-4-yl)oxy]pyridin-3-yl}-5-{[5-(trifluoromethyl)pyrazin-2-yl]amino}-1,2-thiazole-4-carboxamide]
27 | > 20 µM | Cc1nsc(Nc2cnc(C(F)(F)F)cn2)c1C(=O)Nc1ccc(OCCN)c(F)c1 [Example 221, 3-N-[4-(2-aminoethoxy)-3-fluorophenyl]-3-methyl-5-{[5-(trifluoromethyl)pyrazin-2-yl]amino}-1,2-thiazole-4-carboxamide]
28 | > 20 µM | Cc1nsc(Nc2cncc(C(F)(F)F)n2)c1C(=O)Nc1ccc(C(=O)NC2CCN(C(=O)OC(C)(C)C)CC2)cc1 [Example 222, tert-butyl 4-[(4-{[(3-methyl-5-{[6-(trifluoromethyl)pyrazin-2-yl]amino}-1,2-thiazol-4-yl)carbonyl]amino}benzoyl)amino] piperidine-1-carboxylate]

Source: patent US20170334899A1, “AMINO-SUBSTITUTED ISOTHIAZOLES” (Bayer Pharma Aktiengesellschaft, priority 2014, published 2017)
